From patent US7091033B2, “Array of toxicologically relevant canine genes and uses thereof” (Phase-1 Molecular Toxicology, Inc., priority 2000, dated 2006) come the findings set out here.

Series [1] concerns canine genes of the array. Briefly: Canine array fold induction of canine genes in liver of canines dosed with test agents (Table 11). The conditions noted are these: dog, gene = c0 of the row; for fold induction at 10 days: 0.3 mg/kg. It is filed as in vivo. From the text:
(§1) Table 11 depicts the fold induction for canine genes in a canine array.

Series [2] has as its system canine genes of the array. Briefly: Canine array fold induction of canine genes in kidney of canines dosed with test agents (Table 11). It is filed as in vivo. The conditions noted are these: dog, gene = c0 of the row; for fold induction at 10 days: 0.3 mg/kg.
Description: as §1

The test system of another series is IL-8 gene expression. Kind of series: Measurement of IL-8 dose response: IL-8 gene expression (fold induction) in MDCK cells dosed with cadmium chloride, cDNA probes on canine array. It is filed as cell-based. The conditions noted are these: MDCK cells dosed for 24 hrs at 0.1 μM, 1 μM, and 10 μM; FIG. 3. From the text: Dosage response is an important concept in toxicology. Depending on the dosage of a toxin or agent which may be toxic, the gene expression profile of a particular gene may vary. One way that this can be envisioned is by observing the changes in fold induction of a particular gene when analyzed using the arrays of this invention. The dosages determined in dose response curves may be useful in determining “threshold” levels of toxicity, for example for FDA approval. Example 15 and FIG. 3 illustrate this embodiment. Methods of analyzing gene expression and how to correlate gene expression data are provided herein.
Fluorescence-labeled first strand cDNA probe was made from total or mRNA by first isolating RNA from control and treated cells, disclosed supra. […]
The volume of each sample that would contain 20 μg of total RNA (or 2 μg of mRNA) was calculated. The amount of DEPC water needed to bring the total volume of each RNA sample to 14 μl was also calculated. […]
Then the appropriate volume of each RNA sample was added to the labeled PCR tube. […] The tubes were kept on ice until all samples are ready for the next step. It is preferable for the tubes to kept on ice until the next step is ready to proceed. The samples were incubated in a PCR machine for 10 minutes at 70° C. followed by 4° C. incubation period until the sample tubes were ready to be retrieved. […]

Series [3] relates to canine genes in a canine array (Canine kidney). Kind of series: Canine array fold induction of canine genes in kidney of dogs dosed with an agent (Table 11). The conditions noted are these: for fold induction at 0.3 mg/kg: Canis lupus familiaris, 240 h. It is filed as in vivo.
Description: as §1

For series [4], the system named is Cytochrome P450 2C41 (gene expression). Described as above. It is filed as in vivo. The conditions noted are these: dog, kidney, 0.3 mg/kg, canine kidney, 10 days.
Description: as §1

For series [5], the system named is Cytochrome P450 2D (gene expression). Described as above. The conditions noted are these: dog, kidney, 0.3 mg/kg, canine kidney, 10 days. It is filed as in vivo.
Description: as §1

For series [6], the system named is Cytochrome P450 2B (gene expression). The description is as above. The conditions noted are these: dog, kidney, 0.3 mg/kg, canine kidney, 10 days. It is filed as in vivo.
Description: as §1

Setting [7] is: canine kidney, 0.3 mg/kg, 10 days.
Setting [8] is: Canine kidney, 0.8 mg/kg, 2 days.

The structures appear in SMILES notation. Read-outs that look alike come from different tables or passages of the source.

With `CN(Cc1cnc2nc(N)nc(N)c2n1)c1ccc(C(=O)N[C@@H](CCC(=O)O)C(=O)O)cc1` [Methotrexate], the fold induction at 3 days in series [1] (2 mg/kg, 10319, Canine liver, 2 mg/kg, 3 day) was 1.1. Besides, the fold induction at 2 days in series [2] (2 mg/kg, 10189, Canine kidney, 2 mg/kg, 2 days) came out at 1.1.
On to `[Cl][Cd][Cl]` [cadmium chloride], for which, in the series on IL-8 gene expression, the “IL-8 gene expression, fold induction” value is on record as “fold induction varies with the dosage”.
On to `C[C@]12CC[C@@H]3c4ccc(O)cc4CC[C@H]3[C@@H]1CC[C@@H]2O` [Estradiol], for which the fold induction at 10 days worked out at 1 in series [1] (0.3 mg/kg, 10196, Canine Liver, 10 days); 1.2 in series [1] (0.3 mg/kg, 10316, Canine liver, 10 day); 1.7 in series [4]; 1.2 in series [5]; 1.2 in series [6]; 1.6 in series [2] (0.3 mg/kg, 10087, canine kidney). In series [2] (0.3 mg/kg, 10089, canine kidney), this compound had a fold induction at 10 days of 1. Moreover, the fold induction at 0.3 mg/kg in series [3] (canine kidney, 0.3 mg/kg, 10 days, read-out: Alkaline phosphatase fold induction) came out at 1.4; in series [3] (canine kidney, 0.3 mg/kg, 10 days, read-out: Angiopoietin-related protein 3 (ANGPTL3) fold induction), 1.1; in series [3] (canine kidney, 0.3 mg/kg, 10 days, read-out: BRCA1 fold induction), 1.1; in series [3] (canine kidney, 0.3 mg/kg, 10 days, read-out: Beta-glucuronidase fold induction) it was 1.3; in series [3] (canine kidney, 0.3 mg/kg, 10 days, read-out: CD40 ligand fold induction), 1.1; in series [3] (canine kidney, 0.3 mg/kg, 10 days, read-out: Catalase fold induction), 1.2. Also, the fold induction at 0.3 mg/kg in series [3] (canine kidney, 0.3 mg/kg, 10 days, read-out: Caveolin-1 fold induction) came to 1.4; in series [3] (canine kidney, 0.3 mg/kg, 10 days, read-out: Caveolin-2 fold induction), 1.7; in series [3] (canine kidney, 0.3 mg/kg, 10 days, read-out: Cubilin fold induction) it was 1.1; in series [3] (canine kidney, 0.3 mg/kg, 10 days, read-out: Cytochrome c oxidase subunit VIIaL fold induction) it was 1; in series [3] (canine kidney, 0.3 mg/kg, 10 days, read-out: c-erb B-2 fold induction) it was 1.3. In series [3] (setting [7]), the “Alkaline phosphatase fold induction” value amounted to 1.6. The compound also showed a Caveolin-2 fold induction in series [3] (setting [7]) of 1.6.
Consider `C[C@@H]1[C@H](O)[C@@H](C)/C=C/C=C/C=C/C=C/C=C/C=C/C=C/[C@H](O[C@@H]2O[C@H](C)[C@@H](O)[C@H](N)[C@@H]2O)C[C@@H]2O[C@](O)(C[C@@H](O)C[C@@H](O)[C@H](O)CC[C@@H](O)C[C@@H](O)CC(=O)O[C@H]1C)C[C@H](O)[C@H]2C(=O)O` [Amphoteracin B], for which, in series [3] (setting [8]), the BRCA1 fold induction is on record as 1.1, the Beta-glucuronidase fold induction stood at 1.3, the “CD40 ligand fold induction” value came to 1.4 and the Catalase fold induction is listed as 1.1. Also, in series [3] (setting [8]), the Caveolin-1 fold induction worked out at 1.0, the Caveolin-2 fold induction is listed as 1.0, the “Cytochrome P450 2B fold induction” value is on record as 1.1 and the “Cytochrome P450 2C21 fold induction” value is 1.2. In series [3] (setting [8]), the “Cytochrome P450 2D fold induction” value turned out to be 1.6, the GRP94 fold induction is 1.9, the “Glucose transporter fold induction” value amounted to 1.2 and the Glucose-6-phosphatase fold induction stood at 1.3. For the same compound, in series [3] (setting [8]), the “Glucose-regulated protein 94 #2 fold induction” value was determined as 1.1, the “Glutathione S-transferase alpha subunit fold induction” value turned out to be 1.1, the Interleukin-8 fold induction is listed as 1.2 and the Interleukin-10 fold induction came out at 1.1. In addition, in series [3] (setting [8]), the “Keratinocyte growth factor fold induction” value is given as 1.1, the Mek5 fold induction was determined as 1.1, the “Metallothionein 1 fold induction” value was 2.1 and the “Multidrug resistant protein-1 fold induction” value was 1.2. For the same compound, in series [3] (setting [8]), the “Phase-1 CCT-11 fold induction” value turned out to be 1.3, the “Phase-1 CCT-61 fold induction” value is reported as 1.1, the “Phase-1 CCT-72 fold induction” value worked out at 1.1 and the “Phase-1 CCT-74 fold induction” value is listed as 1.1. In series [3] (setting [8]), the “Phase-1 CCT-76 fold induction” value is on record as 1.0, the “Phase-1 CCT-78 fold induction” value was 1.0, the “Phase-1 CCT-80 fold induction” value came to 1.9 and the “Phase-1 CCT-81 fold induction” value came to 1.0. Besides, in series [3] (setting [8]), the “Phase-1 CCT-82 fold induction” value is 1.1, the “Phase-1 CCT-83 fold induction” value came out at 1.1, the “Phase-1 CCT-87 fold induction” value was found to be 1.1 and the “Phase-1 CCT-89 fold induction” value came to 1.1. In series [3] (setting [8]), the “Phase-1 CCT-91 fold induction” value amounted to 1.2, the “Phase-1 CCT-93 fold induction” value is given as 1.0, the “Phase-1 CCT-97 fold induction” value came to 1.0 and the “Phenol sulfotransferase fold induction” value is recorded as 1.0. In addition, in series [3] (setting [8]), the “Prostaglandin D synthase fold induction” value is reported as 1.3, the Rab2 fold induction was 1.8, the Rab5 fold induction is 1.1 and the Rab7 fold induction amounted to 2.2. Moreover, in series [3] (setting [8]), the “SHB (Src homology 2 protein) fold induction” value was determined as 1.1, the “TFCOUP-related (probable steroid hormone receptor) fold induction” value amounted to 1.1, the “Tissue inhibitor of metalloproteinases-1 fold induction” value is 2.5 and the “Tumor necrosis factor-alpha fold induction” value worked out at 2.0. In series [3] (setting [8]), the “UV excision repair protein RAD 23 (XP-C) fold induction” value is 1.0, the Ubiquitin fold induction amounted to 1.0, the “Vascular cell adhesion molecule 1 (VCAM-1) fold induction” value was found to be 3.5 and the “ZAP36/annexin IV fold induction” value is given as 1.4. In series [3] (setting [8]), the “c-erb B-2 fold induction” value is 1.3, the “p38 MAPK fold induction” value was found to be 1.2 and the p53 fold induction is 1.4.
